From patent US6358885B1, “Substituted phenylheterocyclic herbicides” (Mississippi State University, priority 1992, dated 2002)

Key:
Experiment in all cases: Test B preemergence/postemergence greenhouse plant response rating 0 to 10
Settings in all cases: 0 to 10 scale
bedstraw = format: in vivo, Galium aparine
Outline: (§1)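 Test chemicals, dissolved in a non-phytotoxic solvent, were applied to soil at planting and, at the same time, over foliage of seedlings at the one to four leaf stage.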

rape = format: in vivo, Brassica napus
Outline: as §1

corn = format: in vivo, Zea mays
Outline: as §1

rice = format: in vivo, Oryza sativa
Outline: as §1

wheat = format: in vivo, Triticum aestivum
Outline: as §1

cocklebur = format: in vivo, Xanthium pensylvanicum
Outline: as §1

giant foxtail = format: in vivo, Setaria faberii
Outline: as §1

blackgrass = format: in vivo, Alopecurus myosuroides
Outline: as §1

wild oat = format: in vivo, Avena fatua
Outline: as §1

morningglory = format: in vivo, Ipomoea hederacea
Outline: as §1

sorghum = format: in vivo, Sorghum bicolor
Outline: as §1

sugar beet = format: in vivo, Beta vulgaris
Outline: as §1

chickweed = format: in vivo, Stellaria media
Outline: as §1

barley = format: in vivo, Hordeum vulgare
Outline: as §1

wild buckwheat = format: in vivo, Polygonum convolvulus
Outline: as §1

barnyardgrass = format: in vivo, Echinochloa crus-galli
Outline: as §1

cheatgrass = format: in vivo, Bromus secalinus
Outline: as §1

velvetleaf = format: in vivo, Abutilon theophrasti
Outline: as §1

soybean = format: in vivo, Glycine max
Outline: as §1

purple nutsedge = format: in vivo, Cyperus rotundus
Outline: as §1

cotton = format: in vivo, Gossypium hirsutum
Outline: as §1

lambsquarters = format: in vivo, Chenopodium album
Outline: as §1

crabgrass = format: in vivo, Digitaria spp.
Outline: as §1

CC(C#N)Oc1cc(-c2nn3c(c2Cl)CCCC3)c(F)cc1Cl (centres unmarked) [Compound 60]
Plant response rating, Bedstraw (bedstraw; POSTEMERGENCE, Rate 10 g/ha): 7
Plant response rating, Bedstraw (bedstraw; POSTEMERGENCE, Rate 50 g/ha): 9
Plant response rating, Bedstraw (bedstraw; PREEMERGENCE, Rate 50 g/ha): 6
Plant response rating, Rape (rape; POSTEMERGENCE, Rate 10 g/ha): 6
Plant response rating, Rape (rape; POSTEMERGENCE, Rate 50 g/ha): 10
Plant response rating, Rape (rape; PREEMERGENCE, Rate 50 g/ha): 6
Plant response rating, Corn (corn; POSTEMERGENCE, Rate 10 g/ha): 3
Plant response rating, Corn (corn; POSTEMERGENCE, Rate 50 g/ha): 3
Plant response rating, Corn (corn; PREEMERGENCE, Rate 50 g/ha): 0
Plant response rating, Rice (rice; POSTEMERGENCE, Rate 10 g/ha): 3
Plant response rating, Rice (rice; POSTEMERGENCE, Rate 50 g/ha): 4
Plant response rating, Rice (rice; PREEMERGENCE, Rate 50 g/ha): 1
Plant response rating, Wheat (wheat; POSTEMERGENCE, Rate 10 g/ha): 3
Plant response rating, Wheat (wheat; POSTEMERGENCE, Rate 50 g/ha): 4
Plant response rating, Wheat (wheat; PREEMERGENCE, Rate 50 g/ha): 2
Plant response rating, Cocklebur (cocklebur; POSTEMERGENCE, Rate 10 g/ha): 6
Plant response rating, Cocklebur (cocklebur; POSTEMERGENCE, Rate 50 g/ha): 8
Plant response rating, Cocklebur (cocklebur; PREEMERGENCE, Rate 10 g/ha): 0
Plant response rating, Cocklebur (cocklebur; PREEMERGENCE, Rate 50 g/ha): 0
Plant response rating, Giant foxtail (giant foxtail; POSTEMERGENCE, Rate 10 g/ha): 3
Plant response rating, Giant foxtail (giant foxtail; POSTEMERGENCE, Rate 50 g/ha): 4
Plant response rating, Giant foxtail (giant foxtail; PREEMERGENCE, Rate 10 g/ha): 0
Plant response rating, Giant foxtail (giant foxtail; PREEMERGENCE, Rate 50 g/ha): 2
Plant response rating, Blackgrass (blackgrass; POSTEMERGENCE, Rate 10 g/ha): 3
Plant response rating, Blackgrass (blackgrass; POSTEMERGENCE, Rate 50 g/ha): 3
Plant response rating, Blackgrass (blackgrass; PREEMERGENCE, Rate 10 g/ha): 0
Plant response rating, Blackgrass (blackgrass; PREEMERGENCE, Rate 50 g/ha): 0
Plant response rating, Wild oat (wild oat; POSTEMERGENCE, Rate 10 g/ha): 2
Plant response rating, Wild oat (wild oat; POSTEMERGENCE, Rate 50 g/ha): 4
Plant response rating, Wild oat (wild oat; PREEMERGENCE, Rate 50 g/ha): 3
Plant response rating, Morningglory (morningglory; POSTEMERGENCE, Rate 10 g/ha): 7
Plant response rating, Morningglory (morningglory; POSTEMERGENCE, Rate 50 g/ha): 7
Plant response rating, Morningglory (morningglory; PREEMERGENCE, Rate 50 g/ha): 3
Plant response rating, Sorghum (sorghum; POSTEMERGENCE, Rate 10 g/ha): 3
Plant response rating, Sorghum (sorghum; POSTEMERGENCE, Rate 50 g/ha): 3
Plant response rating, Sorghum (sorghum; PREEMERGENCE, Rate 50 g/ha): 2
Plant response rating, Sugar beet (sugar beet; POSTEMERGENCE, Rate 10 g/ha): 10
Plant response rating, Sugar beet (sugar beet; POSTEMERGENCE, Rate 50 g/ha): 10
Plant response rating, Sugar beet (sugar beet; PREEMERGENCE, Rate 50 g/ha): 9
Plant response rating, Chickweed (chickweed; POSTEMERGENCE, Rate 10 g/ha): 3
Plant response rating, Chickweed (chickweed; POSTEMERGENCE, Rate 50 g/ha): 7
Plant response rating, Chickweed (chickweed; PREEMERGENCE, Rate 50 g/ha): 4
Plant response rating, Barley (barley; POSTEMERGENCE, Rate 10 g/ha): 3
Plant response rating, Barley (barley; POSTEMERGENCE, Rate 50 g/ha): 4
Plant response rating, Barley (barley; PREEMERGENCE, Rate 10 g/ha): 0
Plant response rating, Barley (barley; PREEMERGENCE, Rate 50 g/ha): 0
Plant response rating, Wild buckwheat (wild buckwheat; POSTEMERGENCE, Rate 10 g/ha): 9
Plant response rating, Wild buckwheat (wild buckwheat; POSTEMERGENCE, Rate 50 g/ha): 10
Plant response rating, Wild buckwheat (wild buckwheat; PREEMERGENCE, Rate 50 g/ha): 7
Plant response rating, Barnyardgrass (barnyardgrass; POSTEMERGENCE, Rate 10 g/ha): 3
Plant response rating, Barnyardgrass (barnyardgrass; POSTEMERGENCE, Rate 50 g/ha): 4
Plant response rating, Barnyardgrass (barnyardgrass; PREEMERGENCE, Rate 10 g/ha): 0
Plant response rating, Barnyardgrass (barnyardgrass; PREEMERGENCE, Rate 50 g/ha): 0
Plant response rating, Cheatgrass (cheatgrass; POSTEMERGENCE, Rate 10 g/ha): 3
Plant response rating, Cheatgrass (cheatgrass; POSTEMERGENCE, Rate 50 g/ha): 3
Plant response rating, Cheatgrass (cheatgrass; PREEMERGENCE, Rate 10 g/ha): 0
Plant response rating, Cheatgrass (cheatgrass; PREEMERGENCE, Rate 50 g/ha): 2
Plant response rating, Velvetleaf (velvetleaf; POSTEMERGENCE, Rate 10 g/ha): 7
Plant response rating, Velvetleaf (velvetleaf; POSTEMERGENCE, Rate 50 g/ha): 8
Plant response rating, Velvetleaf (velvetleaf; PREEMERGENCE, Rate 50 g/ha): 6
Plant response rating, Soybean (soybean; POSTEMERGENCE, Rate 10 g/ha): 6
Plant response rating, Soybean (soybean; POSTEMERGENCE, Rate 50 g/ha): 4
Plant response rating, Soybean (soybean; PREEMERGENCE, Rate 50 g/ha): 0
Plant response rating, Nutsedge (purple nutsedge; POSTEMERGENCE, Rate 10 g/ha): 1
Plant response rating, Nutsedge (purple nutsedge; POSTEMERGENCE, Rate 50 g/ha): 2
Plant response rating, Nutsedge (purple nutsedge; PREEMERGENCE, Rate 50 g/ha): 0
Plant response rating, Cotton (cotton; POSTEMERGENCE, Rate 10 g/ha): 9
Plant response rating, Cotton (cotton; POSTEMERGENCE, Rate 50 g/ha): 10
Plant response rating, Cotton (cotton; PREEMERGENCE, Rate 10 g/ha): 0
Plant response rating, Cotton (cotton; PREEMERGENCE, Rate 50 g/ha): 5
Plant response rating, Lambsquarter (lambsquarters; POSTEMERGENCE, Rate 10 g/ha): 10
Plant response rating, Lambsquarter (lambsquarters; POSTEMERGENCE, Rate 50 g/ha): 10
Plant response rating, Lambsquarter (lambsquarters; PREEMERGENCE, Rate 50 g/ha): 9
Plant response rating, Crabgrass (crabgrass; POSTEMERGENCE, Rate 10 g/ha): 2
Plant response rating, Crabgrass (crabgrass; POSTEMERGENCE, Rate 50 g/ha): 2
Plant response rating, Crabgrass (crabgrass; PREEMERGENCE, Rate 10 g/ha): 0
Plant response rating, Crabgrass (crabgrass; PREEMERGENCE, Rate 50 g/ha): 0
